Measurements taken from US20260217767A1, “NOVEL A4B7 THIOETHER PEPTIDE DIMER ANTAGONISTS” (Protagonist Therapeutics, Inc., priority 2014, published 2026).
*1 amine or outer side, *2 acyl side, *3 side chain or, on linkers, in order; H or OH if unused. Where a SMILES comes first, the peptide text is derived from it. Bridges are numbered along the chain shown (N, C = ends). Roman numbers before positions name the chains, in order. [ ]: non-standard residue; d: D form. Diglycolyl = O=C(COCC(=O)[*:2])[*:1]; NMeR = CN[C@@H](CCCNC(=N)N)C(=O)O; β3hE = N[C@@H](CCC(=O)O)CC(=O)O; X1 = O=C(c1ccccc1C[*:2])[*:1]; Pen = CC(C)(S)[C@H](N)C(=O)O

Key:
[1] = Simulated Intestinal Fluid (SIF) Stability Assay; assay type: in vitro ADME; conditions: 37° C.; for half-life: simulated gi fluid, porcine pancreatin; for half-life at 22 μM: pig, simulated intestinal fluid (SIF) with 1% porcine pancreatin, pH 6.5, porcine pancreatin
Procedure, shortened: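 Peptide at 22 μM final was incubated at 37° C in blank FaSSIF pH 6.5 with 1% porcine pancreatin. Timed samples were quenched in acetonitrile/methanol/formic acid with internal standard and analysed by LC-MS/MS. Half-lives came from first-order exponential fits of percent remaining.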

[2] = Simulated Gastric Fluid (SGF) Stability Assay; assay type: in vitro ADME; conditions: pH 2, 37° C.; for half-life: simulated gi fluid, porcine pepsin; for half-life at 20 μM: pig, simulated gastric fluid (SGF) with porcine pepsin
Procedure: Simulated Gastric Fluid (SGF) Stability Assays
Studies were carried out in simulated gastric fluid (SGF) to evaluate intestinal stability of the peptide molecules of the instant invention. SGF was prepared by adding 20 mg NaCl, 32 mg porcine pepsin (MP Biochemicals, catalog 02102599), and 70 μl HCl to 10 ml water (final pH=2). Aliquots of SGF (0.5 ml each) were pre-warmed at 37° C. To start the reaction, 1 μl of peptide stock solution (10 mM in DMSO) was added to 0.5 ml SGF and thoroughly mixed such that the final peptide concentration was 20 μM. The reactions were incubated at 37° C. with gentle shaking. At each time point (0, 15, 30, 60 min) 50 μl aliquots were removed and added to 200 μl acetonitrile containing 0.1% formic acid to quench the reaction. Samples are stored at 4° C. until the end of the experiment and centrifuged at 10,000 rpm for 5 minutes. Aliquots of the supernatant were removed, diluted 1:1 into distilled water containing internal standard, and analyzed by LCMS/MS. Percent remaining at each timepoint was calculated based on the peak area response ratio of test to compound to internal standard. Time 0 was set to 100%, and all later timepoints were calculated relative to time 0. Half-lives were calculated by fitting to a first-order exponential decay equation using GraphPad.

α4β1 = molecular target: T1, α4β1 (Homo sapiens, UniProt P05556+P13612); experiment: α4β1-VCAM Competition ELISA; assay type: binding; conditions: thioether peptide dimers, Table 7; read-out: ELISA A4B1
T1 construct: purchased R&D Systems 5668-A4
Procedure: α4β1-VCAM Competition ELISA
A Nunc MaxiSorp plate was coated with rh VCAM-1/CD106 Fc chimera (R&D #862-VC) at 400 ng/well in 50 ul per well in 1×PBS and incubated overnight at 4° C. The solution was removed by shaking and then blocked with 250 ul of 1% BSA in 1×PBS per well. The wells were then incubated at room temperature for 1 hr with shaking. Each well was then washed once with wash buffer (50 mM Tris-HCl pH7.6, 100 mM NaCL, 1 mM MnCl2 or MgCl2, 0.05% Tween-20). 25 ul of serial dilutions of peptides starting at 200 μM in assay buffer (Assay buffer: 50 mM Tris-HCl pH7.6, 100 mM NaCl, 1 mM MnCl2 or MgCl2, 0.05% Tween-20) was added to each well. Additionally, 25 μl of α4β1 (R&D Systems #5668-A4) was added to each well at a fixed concentration of 120 nM. The final peptide and α4β1 concentrations were 100 μM and 60 nM, respectively. The plates were then incubated at 37° C. for 2 hr. The solution was then removed by shaking and each well was washed three times with wash buffer. 50 ul of 9F10 antibody at 4 ug/ml (purified mouse anti-human CD49d, BD Bioscience Cat #555502) was then added to each well, and the plate was incubated at room temperature for Ihr with shaking. The solution was again removed by shaking, and each well was washed three times with wash buffer. 50 μl of peroxidase-conjugated AffiniPure Goat anti-mouse IgG (Jackson immune research cat #115-035-003) diluted in 1:5000 in assay buffer was added to each well. The plate was incubated at room temperature for 30 min with shaking. Each well was then washed 3 times with wash buffer. 100 ul of TMB was then added to each well and closely observe during developing time. The reaction was stepped with 2N H2SO4 and absorbance was read at 450 nm.

Jurkat E6.1 cells = Jurkat E6.1 cells (Homo sapiens, UniProt P05556+P13612); experiment: α4β1-VCAM Cell Adhesion Assay; assay type: cell-based; conditions: thioether peptide dimers, Table 7; read-out: Cell Adhesion A4B1
Procedure: α4β1-VCAM Cell Adhesion Assay
Jurkat E6.1 cells (Sigma #88042803) were cultured in RPMI 1640 HEPES medium (Invitrogen #22400-089) supplemented with 10% serum (Fetal Bovine Serum, Invitrogen #16140-071), 1 mM sodium pyruvate (Invitrogen #11360-070), 2 mM L-glutamine (Invitrogen #25030-081) and Penicillin-Streptomycin (Invitrogen #15140-122) at 100 units of penicillin and 100 μg of streptomycin per ml. The cells were washed two times in DMEM medium (ATCC #30-2002) supplemented with 0.1% BSA, 10 mM HEPES pH 7 and 1 mM MnCl2. The cells were re-suspended in supplemented DMEM medium at a density of 4×10^6 cells/ml.
A Nunc MaxiSorp plate was coated with rh VCAM-1/CD106 Fc chimera (R&D #862-VC) at 400 ng per well in 50 μl per well in 1×PBS and incubated at 4° C. overnight. The solution was then removed by shaking, blocked with 250 μl per well PBS containing 1% BSA, and incubated at 37° C. for 1 hr. The solution was removed by shaking. Peptides were diluted by serial dilution in a final volume of 50 μl per well (2× concentration). To each well, 50 μl of cells (200,000 cells) were added and the plate was incubated at 37° C., 5% CO2 for 30-45 min to allow cell adhesion. The wells were washed manually three times (100 μl per wash) with supplemented DMEM. After the final wash, 100 μl/well of supplemented DMEM and 10 ul/well of MTT reagent (ATTC cat #30-1010K) were added. The plate was incubated at 37° C., 5% CO2 for 2-3 hrs until a purple precipitate is visible. 100 ul of Detergent Reagent (ATTC cat #30-1010K) is added to each well. The plate was covered from the light, wrapped in Parafilm to prevent evaporation, and left overnight at room temperature in the dark. The plate was shaken for 5 min and the absorbance at 570 nm is measured. To calculate the dose response, the absorbance value of control wells not containing cells was subtracted from each test well.

T1 sequence (P13612 34-977 limits assumed): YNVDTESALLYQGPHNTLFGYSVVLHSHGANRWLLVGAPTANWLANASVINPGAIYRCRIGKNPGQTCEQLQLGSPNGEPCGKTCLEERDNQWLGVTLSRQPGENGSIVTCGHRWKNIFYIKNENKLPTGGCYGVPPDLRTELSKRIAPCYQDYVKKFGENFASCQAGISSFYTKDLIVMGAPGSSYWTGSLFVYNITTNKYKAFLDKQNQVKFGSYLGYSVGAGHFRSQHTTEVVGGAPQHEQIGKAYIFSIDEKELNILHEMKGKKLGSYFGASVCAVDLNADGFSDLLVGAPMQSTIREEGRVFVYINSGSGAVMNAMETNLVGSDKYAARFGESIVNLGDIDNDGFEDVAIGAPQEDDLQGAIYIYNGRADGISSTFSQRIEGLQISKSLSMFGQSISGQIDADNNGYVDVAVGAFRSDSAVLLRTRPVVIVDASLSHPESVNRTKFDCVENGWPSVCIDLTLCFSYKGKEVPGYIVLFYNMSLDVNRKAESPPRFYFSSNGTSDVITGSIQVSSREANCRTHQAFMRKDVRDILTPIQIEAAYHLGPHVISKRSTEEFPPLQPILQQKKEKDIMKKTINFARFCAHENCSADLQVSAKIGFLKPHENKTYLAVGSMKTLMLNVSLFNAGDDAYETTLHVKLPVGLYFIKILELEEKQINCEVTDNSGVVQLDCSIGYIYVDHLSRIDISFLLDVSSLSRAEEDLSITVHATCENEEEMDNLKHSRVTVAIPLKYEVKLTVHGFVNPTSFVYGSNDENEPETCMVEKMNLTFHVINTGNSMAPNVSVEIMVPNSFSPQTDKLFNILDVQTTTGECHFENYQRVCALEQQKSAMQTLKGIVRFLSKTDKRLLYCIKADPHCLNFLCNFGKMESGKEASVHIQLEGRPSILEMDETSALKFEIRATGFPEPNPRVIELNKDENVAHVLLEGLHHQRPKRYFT
T1 sequence (P05556 21-728 limits assumed): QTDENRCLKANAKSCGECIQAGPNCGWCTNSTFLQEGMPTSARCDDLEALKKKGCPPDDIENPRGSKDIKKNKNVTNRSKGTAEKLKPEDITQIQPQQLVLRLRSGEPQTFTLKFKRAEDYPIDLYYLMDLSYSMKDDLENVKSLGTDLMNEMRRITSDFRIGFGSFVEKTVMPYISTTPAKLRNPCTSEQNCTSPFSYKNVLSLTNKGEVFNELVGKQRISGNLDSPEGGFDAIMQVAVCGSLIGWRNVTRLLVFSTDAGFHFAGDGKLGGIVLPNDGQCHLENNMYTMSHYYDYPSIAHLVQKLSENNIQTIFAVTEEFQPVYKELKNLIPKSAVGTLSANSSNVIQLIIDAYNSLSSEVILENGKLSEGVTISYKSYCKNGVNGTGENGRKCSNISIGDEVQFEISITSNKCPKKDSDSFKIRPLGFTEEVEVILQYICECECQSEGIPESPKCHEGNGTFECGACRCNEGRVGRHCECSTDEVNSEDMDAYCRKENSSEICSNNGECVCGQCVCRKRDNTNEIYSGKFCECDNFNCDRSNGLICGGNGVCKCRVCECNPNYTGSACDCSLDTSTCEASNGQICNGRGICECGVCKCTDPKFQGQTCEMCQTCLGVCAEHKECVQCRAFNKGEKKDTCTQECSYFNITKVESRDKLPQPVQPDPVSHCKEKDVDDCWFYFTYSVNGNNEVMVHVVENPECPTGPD
Jurkat E6.1 cells, sequence (P13612 34-1032): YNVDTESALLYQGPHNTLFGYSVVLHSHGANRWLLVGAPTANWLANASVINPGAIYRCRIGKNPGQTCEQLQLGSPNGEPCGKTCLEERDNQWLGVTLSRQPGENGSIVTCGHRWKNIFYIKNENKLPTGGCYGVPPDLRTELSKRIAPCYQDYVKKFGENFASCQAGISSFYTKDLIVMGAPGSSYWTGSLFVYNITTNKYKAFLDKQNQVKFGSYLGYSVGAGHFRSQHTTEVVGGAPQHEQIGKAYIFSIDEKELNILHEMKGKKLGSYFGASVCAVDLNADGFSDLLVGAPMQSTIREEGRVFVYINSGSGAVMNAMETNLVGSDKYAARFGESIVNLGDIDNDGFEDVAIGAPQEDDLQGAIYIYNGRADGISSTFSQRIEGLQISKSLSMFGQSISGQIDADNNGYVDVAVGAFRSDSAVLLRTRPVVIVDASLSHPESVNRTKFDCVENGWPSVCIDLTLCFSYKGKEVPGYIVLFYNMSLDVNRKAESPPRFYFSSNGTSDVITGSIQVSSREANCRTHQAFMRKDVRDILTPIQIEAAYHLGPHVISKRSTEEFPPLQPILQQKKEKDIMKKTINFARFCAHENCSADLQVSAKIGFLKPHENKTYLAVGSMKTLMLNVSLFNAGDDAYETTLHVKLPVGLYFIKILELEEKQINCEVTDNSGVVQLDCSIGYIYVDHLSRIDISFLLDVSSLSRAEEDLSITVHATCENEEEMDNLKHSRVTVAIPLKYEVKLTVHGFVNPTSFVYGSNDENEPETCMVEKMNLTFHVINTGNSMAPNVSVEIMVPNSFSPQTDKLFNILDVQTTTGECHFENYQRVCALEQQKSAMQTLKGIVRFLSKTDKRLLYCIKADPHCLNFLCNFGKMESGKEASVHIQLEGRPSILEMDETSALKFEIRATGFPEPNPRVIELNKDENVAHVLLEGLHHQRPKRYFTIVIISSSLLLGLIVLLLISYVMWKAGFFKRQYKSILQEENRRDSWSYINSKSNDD
Jurkat E6.1 cells, sequence (P05556 21-798): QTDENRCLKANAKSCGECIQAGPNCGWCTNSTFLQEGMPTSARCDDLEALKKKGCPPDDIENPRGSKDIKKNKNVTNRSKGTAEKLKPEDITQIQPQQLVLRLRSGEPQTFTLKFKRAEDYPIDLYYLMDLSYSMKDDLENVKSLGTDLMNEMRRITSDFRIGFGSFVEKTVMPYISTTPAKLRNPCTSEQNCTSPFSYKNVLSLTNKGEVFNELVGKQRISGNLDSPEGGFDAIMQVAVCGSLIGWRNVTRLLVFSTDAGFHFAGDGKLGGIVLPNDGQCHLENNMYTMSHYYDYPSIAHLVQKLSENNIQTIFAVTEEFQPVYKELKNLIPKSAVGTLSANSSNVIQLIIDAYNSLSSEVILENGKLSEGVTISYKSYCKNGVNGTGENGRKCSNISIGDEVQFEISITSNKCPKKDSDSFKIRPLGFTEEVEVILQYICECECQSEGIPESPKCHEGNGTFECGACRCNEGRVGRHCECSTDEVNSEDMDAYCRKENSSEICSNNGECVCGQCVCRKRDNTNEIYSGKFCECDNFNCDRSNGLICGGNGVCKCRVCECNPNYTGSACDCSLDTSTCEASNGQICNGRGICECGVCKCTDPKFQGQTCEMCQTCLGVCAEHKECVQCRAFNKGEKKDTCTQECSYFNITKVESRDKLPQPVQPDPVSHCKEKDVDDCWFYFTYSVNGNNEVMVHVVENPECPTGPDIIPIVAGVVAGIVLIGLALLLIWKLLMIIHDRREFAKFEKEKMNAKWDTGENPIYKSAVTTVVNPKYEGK

half-life ([1]; dimers, Table 7) [h]	half-life ([2]; dimers, Table 7) [h]	SMILES	IC50 (α4β1) [nM]	IC50 (Jurkat E6.1 cells) [nM]	half-life at 22 μM ([1]; dimers, Table 7) [h]	half-life at 20 μM ([2]; dimers, Table 7) [h]	half-life ([1]; monomers, Table 6) [h]	half-life ([2]; monomers, Table 6) [h]
> 3	> 3	CC(C)C[C@@H]1NC(=O)[C@H]([C@@H](C)O)NC(=O)[C@H](CC(=O)O)NC(=O)[C@H](CO)NC(=O)[C@H](CCCNC(=N)N)N(C)C(=O)c2ccccc2CSC(C)(C)[C@@H](C(=O)N[C@@H](Cc2c[nH]c3ccccc23)C(=O)N[C@H](CCC(=O)O)C(=O)N[C@H](CCCCN)C(N)=O)NC1=O [compound 150] (HELM PEPTIDE1{[meR].S.D.T.L.[Pen].W.[dE].[dK].[am]}|CHEM1{[O=C(c1ccccc1C[*:2])[*:1]]}$PEPTIDE1,CHEM1,1:R1-1:R1|PEPTIDE1,CHEM1,6:R3-1:R2$$$V2.0)	–	–	–	–	–	–
–	–	CC(C)C[C@@H]1NC(=O)[C@H]([C@@H](C)O)NC(=O)[C@H](CC(=O)O)NC(=O)[C@H](CO)NC(=O)[C@H](CCCNC(=N)N)N(C)C(=O)c2ccccc2CSC(C)(C)[C@@H](C(=O)N[C@@H](Cc2c[nH]c3ccccc23)C(=O)N[C@@H](CCC(=O)O)C(=O)N(C)[C@H](CCCCN)C(N)=O)NC1=O [compound 152] (HELM PEPTIDE1{[meR].S.D.T.L.[Pen].W.E.[CN([C@H](CCCCN)C(=O)[*:2])[*:1]].[am]}|CHEM1{[O=C(c1ccccc1C[*:2])[*:1]]}$PEPTIDE1,CHEM1,1:R1-1:R1|PEPTIDE1,CHEM1,6:R3-1:R2$$$V2.0)	25 to 100	> 100000	> 3	> 1	–	–
–	–	CC(C)C[C@@H]1NC(=O)[C@H]([C@@H](C)O)NC(=O)[C@H](CC(=O)O)NC(=O)[C@H](CO)NC(=O)[C@H](CCCNC(=N)N)N(C)C(=O)c2ccccc2CSC(C)(C)[C@@H](C(=O)N[C@@H](Cc2ccccc2)C(=O)N[C@@H](CCC(=O)O)CC(=O)N[C@H](CCCCN)C(N)=O)NC1=O [compound 164] (HELM PEPTIDE1{[meR].S.D.T.L.[Pen].F.[O=C(O)CC[C@@H](CC(=O)[*:2])N[*:1]].[dK].[am]}|CHEM1{[O=C(c1ccccc1C[*:2])[*:1]]}$PEPTIDE1,CHEM1,1:R1-1:R1|PEPTIDE1,CHEM1,6:R3-1:R2$$$V2.0)	25 to 100	> 100000	> 3	> 1	–	–
–	–	CC(C)C[C@@H]1NC(=O)[C@H]([C@@H](C)O)NC(=O)[C@H](CC(=O)O)NC(=O)[C@H](CO)NC(=O)[C@H](CCCNC(=N)N)N(C)C(=O)c2ccccc2CSC(C)(C)[C@@H](C(=O)N[C@@H](Cc2ccc(O)cc2)C(=O)N[C@@H](CCC(=O)O)CC(=O)N[C@H](CCCCNC(=O)COCC(=O)NCCCC[C@@H](NC(=O)C[C@H](CCC(=O)O)NC(=O)[C@H](Cc2ccc(O)cc2)NC(=O)[C@H]2NC(=O)[C@H](CC(C)C)NC(=O)[C@H]([C@@H](C)O)NC(=O)[C@H](CC(=O)O)NC(=O)[C@H](CO)NC(=O)[C@H](CCCNC(=N)N)N(C)C(=O)c3ccccc3CSC2(C)C)C(N)=O)C(N)=O)NC1=O [compound 165] (I: [NMeR]SDTL[Pen]Y[β3hE][dK]-NH2 / II: [NMeR]SDTL[Pen]Y[β3hE][dK]-NH2; linker I:9-II:9 via Diglycolyl; linker I:N-I:6, II:N-II:6 via X1)	–	–	> 3	> 1	–	–
–	–	CC(C)C[C@@H]1NC(=O)[C@H]([C@@H](C)O)NC(=O)[C@H](CC(=O)O)NC(=O)[C@H](CO)NC(=O)[C@H](CCCNC(=N)N)N(C)C(=O)c2ccccc2CSC(C)(C)[C@@H](C(=O)N[C@@H](Cc2c[nH]c3ccccc23)C(=O)N[C@H](CCC(=O)O)C(N)=O)NC1=O [compound 97] (HELM PEPTIDE1{[meR].S.D.T.L.[Pen].W.[dE].[am]}|CHEM1{[O=C(c1ccccc1C[*:2])[*:1]]}$PEPTIDE1,CHEM1,1:R1-1:R1|PEPTIDE1,CHEM1,6:R3-1:R2$$$V2.0)	–	–	–	–	> 3	> 3
–	–	CC(C)C[C@@H]1NC(=O)[C@H]([C@@H](C)O)NC(=O)[C@H](CC(=O)O)NC(=O)[C@H](CO)NC(=O)[C@H](CCCNC(=N)N)N(C)C(=O)c2ccccc2CSC(C)(C)[C@@H](C(=O)N[C@@H](Cc2ccc(O)cc2)C(=O)N[C@H](CCC(=O)O)C(=O)N[C@H](CCCCN)C(N)=O)NC1=O [compound 169] (HELM PEPTIDE1{[meR].S.D.T.L.[Pen].Y.[dE].[dK].[am]}|CHEM1{[O=C(c1ccccc1C[*:2])[*:1]]}$PEPTIDE1,CHEM1,1:R1-1:R1|PEPTIDE1,CHEM1,6:R3-1:R2$$$V2.0)	100 to 1000	> 100000	> 3	> 3	–	–
